# Test results taken from US20260256797A1, “NOVEL INDENONE DERIVATIVES AND USES THEREOF” (AMYLOID SOLUTION INC., priority 2022, published 2026).
# Tests used:
# [1] = molecular target: T1, Aβ1-42 (Homo sapiens, UniProt P05067); experiment: Amyloid-beta (Aβ) disaggregation test by thioflavin-T assay; type: biochemical; settings: 50 μM Aβ1-42 aggregated 24 hours, then compound 0-500 μM for 48 hours at 37° C.
# T1 construct: dissolving Aβ1-42 or Tau-RD3 (Tau repeat domain 3) monomer in DMSO
# Experimental: (§1) Each compound was dissolved in DMSO to a concentration of 10 mM. Subsequently, the compound was diluted with 6% DMSO (in DW) and used.
# (§2) Specifically, amyloid-beta and tau solutions were prepared by dissolving Aβ1-42 or Tau-RD3 (Tau repeat domain 3) monomer in DMSO to a concentration of 10 mM. Thereafter, each solution was diluted with DW to a concentration of 100 μM and stored on ice. Meanwhile, thioflavin-T was dissolved in 50 mM glycine buffer (pH 8.5) to a concentration of 5 mM. Thereafter, the resulting solution was diluted with 50 mM glycine buffer (pH 8.5) to a concentration of 5 μM and stored in a dark room while light was blocked.
# (§3) Each of the amyloid-beta and tau solutions prepared according to Experimental Example 1.1 was added to a 1.5 mL microcentrifuge tube to a concentration of 50 μM or 35 µM, and then a reaction was allowed to occur therebetween at 37° C. for 24 hours. Each of the 1.5 mL microcentrifuge tubes in which amyloid-beta aggregation and tau aggregation had been completed was treated with each compound at a concentrated of 500 μM to 0 μM through serial dilution, and then a further reaction was allowed to occur therebetween at 37° C. for 48 hours. 25 μL of the reaction solution in which the reaction had been completed was added to each well of a 96-well plate for fluorescence analysis, and 75 μL of the previously prepared thioflavin-T solution was added to each well. After a reaction was allowed to occur at room temperature in the dark for 5 minutes, fluorescence values were measured at excitation 450 nm and emission 485 nm by using a multi-mode microplate reader.
# (§4) The fluorescence value of a group (control) treated with amyloid-beta or tau alone, followed by aggregation for 72 hours was converted into a percentage value and expressed as 100, and amyloid-beta and tau aggregates, in which aggregation had been completed upon reaction for 24 hours, were treated with each compound at each concentration and a further reaction was allowed to occur therebetween for 48 hours, and then fluorescence values thereof were measured and converted into relative values. The results thereof are illustrated in FIGS. 1 to 6 and 7 to 12. In addition, EC50 values of the compounds of the present disclosure for amyloid-beta and tau, respectively are summarized in Table 1.
# [2] = molecular target: Tau-RD3 (Tau repeat domain 3) (Homo sapiens, UniProt P10636); experiment: Tau disaggregation test by thioflavin-T assay; type: biochemical; settings: 35 μM Tau-RD3 aggregated 24 hours, then compound 0-500 μM for 48 hours at 37° C.
# Chain of Tau-RD3 (Tau repeat domain 3) (P10636 623-653 limits assumed): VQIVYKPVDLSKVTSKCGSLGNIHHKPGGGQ
# Experimental: as §1, §2, §3, §4
# T1 sequence (P05067 672-713 limits assumed): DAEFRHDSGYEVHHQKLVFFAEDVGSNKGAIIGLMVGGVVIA
SMILES,EC50 [1],EC50 [2]
"Cc1scnc1C1=C(c2cccs2)C(=O)c2cc(OCCOc3ccc(Cl)c(Cl)c3)ccc21 [Compound 36, 6-(2-(3,4-dichlorophenoxy)ethoxy)-3-(5-methylthiazol-4-yl)-2-(thiophen-2-yl)-1H-inden-1-one]",26 µM,> 500 µM
"Cc1scnc1C1=C(c2cccs2)C(=O)c2cc(OCCOc3ccc(F)c(F)c3)ccc21 [Compound 37, 6-(2-(3,4-difluorophenoxy)ethoxy)-3-(5-methylthiazol-4-yl)-2-(thiophen-2-yl)-1H-inden-1-one]",46.3 µM,470 µM
"O=C1C(c2cccnc2)=C(c2ccoc2)c2ccc(OCCc3ccccc3)cc21 [Compound 38, 3-(furan-3-yl)-6-phenethoxy-2-(pyridin-3-yl)-1H-inden-1-one]",3 µM,120 µM
"O=C1C(c2cccnc2)=C(c2ccoc2)c2ccc(OCCCCc3ccccc3)cc21 [Compound 39, 3-(furan-3-yl)-6-(4-phenylbutoxy)-2-(pyridin-3-yl)-1H-inden-1-one]",2.6 µM,10.7 µM
"O=C1C(c2cccnc2)=C(c2ccoc2)c2ccc(OCOCc3ccccc3)cc21 [Compound 40, 6-((benzyloxy)methoxy)-3-(furan-3-yl)-2-(pyridin-3-yl)-1H-inden-1-one]",2.1 µM,67.1 µM
"COc1ccc(OCCOc2ccc3c(c2)C(=O)C(c2cccnc2)=C3c2ccoc2)cc1 [Compound 42, 3-(furan-3-yl)-6-(2-(4-methoxyphenoxy)ethoxy)-2-(pyridin-3-yl)-1H-inden-1-one]",31.2 µM,124 µM
"O=C1C(c2cccnc2)=C(c2ccoc2)c2ccc(OCCOc3ccc4c(c3)OCO4)cc21 [Compound 44, 6-(2-(benzo[d][1,3]dioxol-5-yloxy)ethoxy)-3-(furan-3-yl)-2-(pyridin-3-yl)-1H-inden-1-one]",1.8 µM,2.7 µM
"O=C1C(c2cccnc2)=C(c2ccoc2)c2ccc(OCCOc3ccncc3)cc21 [Compound 45, 3-(furan-3-yl)-2-(pyridin-3-yl)-6-(2-(pyridin-4-yloxy)ethoxy)-1H-inden-1-one]",9.1 µM,11.9 µM
"CN(C)c1ccc(OCCOc2ccc3c(c2)C(=O)C(c2cccnc2)=C3c2ccoc2)cc1 [Compound 48, 6-(2-(4-(dimethylamino)phenoxy)ethoxy)-3-(furan-3-yl)-2-(pyridin-3-yl)-1H-inden-1-one]",2.3 µM,4.1 µM
"COc1ccc(COCOc2ccc3c(c2)C(=O)C(c2cccnc2)=C3c2ccoc2)cc1 [Compound 50, 3-(furan-3-yl)-6-(((4-methoxybenzyl)oxy)methoxy)-2-(pyridin-3-yl)-1H-inden-1-one]",2.3 µM,19.9 µM

# Next, values leading:
EC50 [1],EC50 [2],SMILES
1.1 µM,4.8 µM,"O=C1C(c2cccnc2)=C(c2ccoc2)c2ccc(OCCOc3ccccc3)cc21 [Compound 41, 3-(furan-3-yl)-6-(2-phenoxyethoxy)-2-(pyridin-3-yl)-1H-inden-1-one]"
1.8 µM,2.8 µM,"COc1ccc(OCCOc2ccc3c(c2)C(=O)C(c2cccnc2)=C3c2ccoc2)cc1OC [Compound 43, 6-(2-(3,4-dimethoxyphenoxy)ethoxy)-3-(furan-3-yl)-2-(pyridin-3-yl)-1H-inden-1-one]"
1.4 µM,2.1 µM,"O=C1C(c2cccnc2)=C(c2ccoc2)c2ccc(OCCOc3ccc(Cl)c(Cl)c3)cc21 [Compound 46, 6-(2-(3,4-dichlorophenoxy)ethoxy)-3-(furan-3-yl)-2-(pyridin-3-yl)-1H-inden-1-one]"
1.7 µM,57 µM,"O=C1C(c2cccnc2)=C(c2ccoc2)c2ccc(OCCOc3ccc(F)c(F)c3)cc21 [Compound 47, 6-(2-(3,4-difluorophenoxy)ethoxy)-3-(furan-3-yl)-2-(pyridin-3-yl)-1H-inden-1-one]"
1.5 µM,1.9 µM,"CC(C)c1ccc(OCCOc2ccc3c(c2)C(=O)C(c2cccnc2)=C3c2ccoc2)cc1 [Compound 49, 3-(furan-3-yl)-6-(2-(4-isopropylphenoxy)ethoxy)-2-(pyridin-3-yl)-1H-inden-1-one]"
